# Source: paper PMC5122889, “Sigma-1 Receptor Agonism Promotes Mechanical Allodynia After Priming the Nociceptive System with Capsaicin” (Scientific Reports, 2016)
# Counter-ions that a name gives are not always drawn. Like-named read-outs stand apart in the source and are kept apart here.
# Assays:
# sigma-1 receptor = target: T1, sigma-1 receptor (Mus musculus, UniProt O55242); assay: [3H](+)-pentazocine competition radioligand binding in mouse brain membranes
# T1 construct: gene Sigmar1; native receptor in wild-type mouse brain crude synaptosomal membranes (P2 fraction)
# T1 sequence (O55242 whole entry): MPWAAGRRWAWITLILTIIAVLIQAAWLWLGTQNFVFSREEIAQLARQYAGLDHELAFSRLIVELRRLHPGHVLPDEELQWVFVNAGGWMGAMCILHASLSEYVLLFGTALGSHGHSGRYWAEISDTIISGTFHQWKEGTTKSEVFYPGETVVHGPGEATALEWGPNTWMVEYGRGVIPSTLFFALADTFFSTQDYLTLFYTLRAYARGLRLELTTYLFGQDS
# in vitro [1] = assay: in vitro; parameters: metabolic stability in mouse liver microsomes with NADPH-regenerating system, parent compound by UHPLC-MS/MS; conditions: mouse liver microsomes
# Description: (§1) Incubation of the test compounds in mouse or human liver microsomes (Xenotech, Lenexa, KS, USA) was done with a previously described method[55] with modifications. We tested the metabolic stability of PRE-084 and PGB, the latter of which was used as a control because of its poor hepatic metabolism. Briefly, the drugs were incubated in 96-well plates at a concentration of 1 μM and at 37 °C during 1 h under standard incubation conditions: sodium-potassium phosphate buffer (50 mM, pH 7.4), MgCl2 (3 mM), the NADPH-regenerating system and cytochrome P450 content (0.3 nmol/mL). Aliquots of the reaction mixture were obtained at 0, 10, 20, 40 and 60 min with an equal volume of cold acetonitrile. The assay was done in a robotic [compound left out] handling system (Freedom Evo Tecan, Männedorf, Switzerland). Upon centrifugation of the resulting mixture, supernatants were analyzed with a generic ultra-high performance [compound left out] chromatography–tandem mass spectrometry method. For the in vitro metabolic stability in liver microsomes, Ln-linear plots of the percentage of compound remaining based on chromatographic peak area versus time were generated, and the slope was calculated by linear fitting of the curve. The in vitro metabolic t1/2 was estimated with the equation 0.693/k where k is the biotransformation rate constant and corresponds to the slope of the ln-linear curve. Liver microsome Cl int was calculated with the equation [drawing 1]
# in vitro [2] = assay: in vitro; parameters: metabolic stability in human liver microsomes with NADPH-regenerating system, parent compound by UHPLC-MS/MS; conditions: human liver microsomes
# Description: as §1
# in vitro [3] = assay: in vitro; parameters: metabolic stability in liver microsomes with NADPH, UHPLC-MS/MS quantitation of parent compound; conditions: for remaining at 1 h, 1 µM: pH 7.4, liver microsomes, read-out: % parent compound remaining at 1 h; for half-life at 1 µM / microsomal CLint at 1 µM: pH 7.4, liver microsomes; for microsomal CLint at 1 µM: read-out: Cl int (µL/min/mg protein)
# Description: as §1
Structure (SMILES),IC50 (sigma-1 receptor),"remaining at 1 h, 1 µM (in vitro [1]; pH 7.4, liver microsomes, read-out: % parent compound remaining at 1 h (mouse))","microsomal CLint at 1 µM (in vitro [1]; pH 7.4, liver microsomes, read-out: Cl int (mouse))","half-life at 1 µM (in vitro [1]; pH 7.4, liver microsomes, read-out: t1/2 (mouse))","remaining at 1 h, 1 µM (in vitro [2]; pH 7.4, liver microsomes, read-out: % parent compound remaining at 1 h (human))","microsomal CLint at 1 µM (in vitro [2]; pH 7.4, liver microsomes, read-out: Cl int (human))","half-life at 1 µM (in vitro [2]; pH 7.4, liver microsomes, read-out: t1/2 (human))","remaining at 1 h, 1 µM (in vitro [3]; human liver microsomes)","remaining at 1 h, 1 µM (in vitro [3]; mouse liver microsomes)",half-life at 1 µM (in vitro [3]; human liver microsomes),microsomal CLint at 1 µM (in vitro [3]; human liver microsomes),half-life at 1 µM (in vitro [3]; mouse liver microsomes),microsomal CLint at 1 µM (in vitro [3]; mouse liver microsomes)
"O=C(OCCN1CCOCC1)C1(c2ccccc2)CCCCC1 [PRE, 2-(4-morpholinethyl)1-phenylcyclohexanecarboxylate) hydrochloride]",188 ± 18.8 nM,0%,949 ± 203 µL/min/mg,3 ± 0.67 min,4 ± 0.58%,103 ± 5 µL/min/mg,0.217 ± 0.00967 h,–,–,–,–,–,–
CC(C)C[C@H](CN)CC(=O)O [Pregabalin],–,–,–,–,–,–,–,95 ± 2.96%,97 ± 2.67%,17.9 ± 10.8 h,2.3 ± 0.94 µL/min/mg,10 ± 3.03 h,4.5 ± 1.2 µL/min/mg
